“Also recorded” adds a separate entry of the source. Where two headings read alike, the source gives them in different places.
Key:
[1] = tested on: FOXO3; test: FOXO3 siRNA knockdown: dependency for H2O2-resistance; format: cell-based, human
[2] = tested on: C. elegans; test: C. elegans lifespan assays (liquid and plate); format: in vivo, Caenorhabditis elegans; settings: for ILS at 60 µM / ILS at 66 µM: Caenorhabditis elegans; for O = Life span- extending scores in worms: score scale 0 to 2, 4 to 6 independent trials; for M = Lifespan-extending scores in worms: summary score; for ILS at 66 µM / Lifespan assay in liquid / Lifespan assay on plates: at 66 uM
[3] = tested on: phosphorylated γH2A.X and TP53BP1; test: DNA damage marker analysis (immuno-staining); settings: for activity at 10 µM: Homo sapiens, WI-38, 24 h
Summary of the method: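 Immunofluorescence read-out for phospho-γH2A.X (Ser-139) and phospho-TP53BP1 (Ser-1778), with DAPI nuclear stain and automated imaging at 10×. WI-38 cells (~8,000 per well) were exposed to small molecules for 24 h after 24 h of culture, with doxorubicin (300 nM, 24 h) or H2O2 (700 μM, 3 h) as positive damage controls.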

[4] = tested on: WI-38 cells; test: Long-term effects on cell viability (5 days, ATP; morphology, PI imaging); format: cell-based; settings: for Luminescence signal for ATP measurement, day-1 Average / Luminescence signal for ATP measurement, day-2 Average / Luminescence signal for ATP measurement, day-3 Average / Luminescence signal for ATP measurement, day-4 Average / Luminescence signal for ATP measurement, day-5 Average: n = 6, day-0 luminescence = 320956 ± 24708
[5] = tested on: WI-38 cells; settings: for Assay 1: H2O2-resistant: YES/NO, if NO, possibly due to repeated freezing/thawing of stocks
[6] = WI-38 cells, 10 μM, (*) = compromised ability to protect cells from H2O2, could be due to stability issue
[7] = WI-38 cells, 10 uM, normalized ATP measurement
[8] = asterisks indicate the loss of the ability to protect cells from H2O2 over time
[9] = derived from dose response curves, 0.6-20 uM, H2O2-resistance of WI-38 cells
[10] = read-out: Est. ED50, dose response 0.6-20 μM, H2O2-resistance
[11] = Experiment 2, WI-38 cells, 10 μM, 24 hrs, no H2O2, normalized marker-positive fraction, n = 3
[12] = Experiment 2, WI-38 cells, 10 μM, 24 hrs, under H2O2 stress, normalized marker-positive fraction, n = 3
[13] = negative point, cultured human cells

In the case of `Cc1ccc(NC(=O)c2ccc([N+](=O)[O-])o2)cc1C` [Gr-1F], the “FOXO3-dependency for H2O2-resistance, at 10 uM (experiment 3) - with & without H2O2” value ([1]; 10 uM, experiment 3, with & without H2O2) is reported as “YES”, the “FOXO3-dependency for H2O2-resistance (experiment 3)” value ([1]; 10 uM, with & without H2O2, FOXO3 knockdown in WI-38 cells, YES = resistance reduced by at least 50%, partial = 25% to 50%) is reported as “YES” and the “I = FOXO3-dependency for H2O2-resistance” value ([1]; score) is reported as 0. The “I = FOXO3-dependency for H2O2-resistance” value ([1]; summary score) was 0, the ILS at 60 µM ([2]; 60 μM, in liquid, wild type, with FuDR, 1.0 × 10^9 bacteria/ml, read-out: relative change of mean lifespan vs control, Trial 1) was 22.3% and the ILS at 60 µM ([2]; 60 μM, in liquid, wild type, with FuDR, 2.5 × 10^9 bacteria/ml, read-out: relative change of mean lifespan vs control, Trial 2) was 0.6%. The ILS at 60 µM ([2]; 60 μM, on plate, CF512 temperature-sensitive sterile animals, without FuDR, 2.0 × 10^10 bacteria/ml, read-out: relative change of mean lifespan vs control, Trial 3) was 11.3%, the ILS at 66 µM ([2]; Assay 2(z), 1.0 × 10^9 bacteria/ml, wild type + FuDR (2012 July), read-out: Lifespan assay in liquid) was 22.3% and the ILS at 66 µM ([2]; Assay 3(aa), 2.5 × 10^9 bacteria/ml, wild type + FuDR, read-out: Lifespan assay in liquid) was 0.6%. For the same compound, the ILS at 66 µM ([2]; Assay 4(ab), 2.0 × 10^10 bacteria/ml, CF512 worms, no FuDR, read-out: Lifespan assay on plates) was 11.3%, the “O = Life span- extending scores in worms” value [2] was 1 (1 for lifespan extension observed in 2 trials) and the “M = Lifespan-extending scores in worms” value [2] was 1 (1 for lifespan extension observed in 2 trials). For the same compound, the activity at 10 µM ([3]; read-out: Experiment 1, H2A.X-P DNA damage foci staining (no H2O2 stress treatment), at 10 uM) was 219%, the activity at 10 µM ([3]; read-out: Experiment 2, H2A.X-P DNA damage foci staining (no H2O2 stress treatment), at 10 uM) was 378% and the activity at 10 µM ([3]; read-out: Experiment 2, H2A.X-P DNA damage foci staining (under H2O2 stress treatment), at 10 uM) was 127%. For the same compound, the activity at 10 µM ([3]; read-out: Experiment 2, TP53BP1-P DNA damage foci staining (no H2O2 stress treatment), at 10 uM) was 460%, the activity at 10 µM ([3]; read-out: Experiment 2, TP53BP1-P DNA damage foci staining (under H2O2 stress treatment), at 10 uM) was 558% and the “P = Potential DNA-damaging” value ([3]; human, 24 h) was 1. The “R = Potential DNA damaging” value ([3]; human, 24 h) was 1, the “Luminescence signal for ATP measurement, day-1 Average” value ([4]; Batch 1, 10 μM) was 383221 and the “Luminescence signal for ATP measurement, day-2 Average” value ([4]; Batch 1, 10 μM) was 440655. For the same compound, the “Luminescence signal for ATP measurement, day-3 Average” value ([4]; Batch 1, 10 μM) was 446240, the “Luminescence signal for ATP measurement, day-4 Average” value ([4]; Batch 1, 10 μM) was 534298 and the “Luminescence signal for ATP measurement, day-5 Average” value ([4]; Batch 1, 10 μM, day-5) was 600633. The viability at 10 µM ([4]; Homo sapiens, WI-38, 120 h, Batch 1, 10 μM, day-5, DMSO ctrl = 100.0%, read-out: ATP luminescence by day-5 normalized) was 58.5%, the “O = Potential toxicity” value ([4]; human, 5 days, 10 μM) was 1 and the “Q = Potential toxicity” value ([4]; human, 5 days, 10 μM) was 1. The H2O2-resistant [5, 6] was “YES”, the “No H2O2 stress treatment, at 10 uM (fold change)” value [5, 7] was 0.60 fold change and the “Assay 1: H2O2-resistant” value [5] was “YES”. For the same compound, the H2O2-resistant [5, 8] was “YES”, the EC50 [5, 9] was 14.8 µM and the EC50 [5, 10] was 2.88 µM.
For `COc1cc2c(no[n+]2[O-])n2nnnc12` [O11], the “I = FOXO3-dependency for H2O2-resistance” value ([1]; score) was 0, the “I = FOXO3-dependency for H2O2-resistance” value ([1]; summary score) was 0 and the “relative change of mean lifespan vs control, Trial 1” value ([2]; 60 μM, in liquid, wild type, with FuDR, 1.0 × 10^9 bacteria/ml) was “+14.9%”. For the same compound, the “relative change of mean lifespan vs control, Trial 2” value ([2]; 60 μM, in liquid, wild type, with FuDR, 2.5 × 10^9 bacteria/ml) was “+6.0%”, the “relative change of mean lifespan vs control, Trial 4” value ([2]; 60 μM, on plate, CF512 temperature-sensitive sterile animals, without FuDR, 1.0 × 10^11 bacteria/ml) was “+9.0%” and the “relative change of mean lifespan vs control, Trial 3” value ([2]; 60 μM, on plate, CF512 temperature-sensitive sterile animals, without FuDR, 2.0 × 10^10 bacteria/ml) was “+21.0%”. For the same compound, the “Lifespan assay in liquid” value ([2]; Assay 2(z), 1.0 × 10^9 bacteria/ml, wild type + FuDR (2012 July)) was “+14.9%”, the “Lifespan assay in liquid” value ([2]; Assay 3(aa), 2.5 × 10^9 bacteria/ml, wild type + FuDR) was “+6.0%” and the “Lifespan assay on plates” value ([2]; Assay 4(ab), 2.0 × 10^10 bacteria/ml, CF512 worms, no FuDR) was “+21.0%”. The “Lifespan assay on plates” value ([2]; Assay 5(ac), 1.0 × 10^11 bacteria/ml, CF512 worms, no FuDR) was “+9.0%”, the “O = Life span- extending scores in worms” value [2] was 1 (1 for lifespan extension observed in 2 trials) and the “M = Lifespan-extending scores in worms” value [2] was 1 (1 for lifespan extension observed in 2 trials). For the same compound, the “Percentage of both γH2A.X- and TP53BP1-positive cells (DNA damage markers)” value ([3]; 10 μM, 24 hrs, absence of H2O2) was “did not appear to increase both”, the “Experiment 1, H2A.X-P DNA damage foci staining (no H2O2 stress treatment), at 10 uM” value ([3]; Experiment 1, WI-38 cells, 10 μM, 24 hrs, no H2O2, normalized marker-positive fraction, n = 3) was 83.1%, and the “Experiment 2, H2A.X-P DNA damage foci staining (no H2O2 stress treatment), at 10 uM” value [3, 11] was 91.2%,. The “Experiment 2, TP53BP1-P DNA damage foci staining (no H2O2 stress treatment), at 10 uM” value [3, 11] was 154.0%,, the “Experiment 2, H2A.X-P DNA damage foci staining (under H2O2 stress treatment), at 10 uM” value [3, 12] was 151.7%, and the “Experiment 2, TP53BP1-P DNA damage foci staining (under H2O2 stress treatment), at 10 uM” value [3, 12] was 560.5%,. For the same compound, the “R = Potential DNA damaging” value [3, 13] was 0, the “P = Potential DNA-damaging” value ([3]; summary score) was 0 and the “Long-term cell toxicity (cell number, morphology, PI-positive dead cells)” value ([4]; 10 μM, up to 5 days, no H2O2) was “reduced cell number substantially and increased the fraction of PI-positive dead cells; also recorded: less cells, and more cells scored positive for propidium iodide”. For the same compound, the “Luminescence signal for ATP measurement, day-1 Average” value ([4]; Batch 1, 10 μM) was 310373, the “Luminescence signal for ATP measurement, day-2 Average” value ([4]; Batch 1, 10 μM) was 412288 and the “Luminescence signal for ATP measurement, day-3 Average” value ([4]; Batch 1, 10 μM) was 484520. The “Luminescence signal for ATP measurement, day-4 Average” value ([4]; Batch 1, 10 μM) was 642267, the “ATP luminescence by day-5 normalized” value ([4]; Batch 1, 10 μM, day-5, DMSO ctrl = 100.0%) was 61.7% and the “Luminescence signal for ATP measurement, day-5 Average” value ([4]; Batch 1, 10 μM, day-5) was 633963. For the same compound, the “Q = Potential toxicity” value [4, 13] was 1, the “O = Potential toxicity” value ([4]; summary score) was 1 and the “Screen 1: Screening, at 10 uM (viability assay by ATP measurement, normalized fold-change shown, >=2.5)” value ([5]; 10 uM, 24 h, then 700 μM H2O2 3 h, normalized to DMSO) was 3.42 fold-change. The “Screen 2: Dose response, at 10 uM (viability assay by ATP measurement, normalized fold-change shown, >=1.5)” value ([5]; 10 uM, H2O2 stress) was 6.71 fold-change, the “Screen 3: Dose response, at 20 uM (viability assay by ATP measurement, normalized fold-change shown)” value ([5]; 20 uM, H2O2 stress) was 3.00 fold-change and the “Exp. 1, under H2O2 stress treatment, at 10 uM (fold change)” value ([5]; Exp. 1, WI-38 cells, 10 uM, normalized ATP measurement (Table 12)) was 3.53 fold change. For the same compound, the “Exp. 2, under H2O2 stress treatment, at 10 uM (fold change)” value ([5]; Exp. 2, WI-38 cells, 10 uM, normalized ATP measurement (Table 12)) was 2.10 fold change, the “Experiment 1, WI-38 cells (under H2O2 stress treatment), at 10 uM (fold change)” value ([5]; Experiment 1, WI-38 cells, 10 uM (run along with HDF cells)) was 2.52 fold change and the “Experiment 2, WI-38 cells (under H2O2 stress treatment), at 10 uM (fold change)” value ([5]; Experiment 2, WI-38 cells, 10 uM (run along with HDF cells)) was 28.12 fold change. For the same compound, the “Dose response retest, at 10 uM (fold change)” value ([5]; H2O2-resistance of WI-38 cells, cherry-picked retest, 10 uM) was 6.71 fold change, the “Dose response retest, at 20 uM (fold change)” value ([5]; H2O2-resistance of WI-38 cells, cherry-picked retest, 20 uM) was 3.00 fold change and the “Library Screening, at 10 uM (fold change)” value ([5]; H2O2-resistance of WI-38 cells, library screening, 10 uM) was 3.42 fold change. The H2O2-resistant [5, 6] was “YES”, the “H2O2 stress treatment (3 hrs), at 10 uM (fold change)” value ([5]; WI-38 cells, H2O2 3 hrs, 10 uM, normalized ATP measurement) was 7.18 fold change and the “No H2O2 stress treatment, at 10 uM (fold change)” value [5, 7] was 0.75 fold change. For the same compound, the “Assay 1: H2O2-resistant” value [5] was “YES”, the H2O2-resistant [5, 8] was “YES” and the EC50 [5, 9] was 4.4 µM. The EC50 [5, 10] was 4.4 µM.

— patent US11413278B2, “Compounds and methods for promoting stress resistance” (priority 2015, dated 2022)
